# Experiments:
# Type in all cases: physicochemical
# [1] = Grinding with water in a ball mill, XRPD analysis; settings: 25-30 mg ground with 80 μl of water, Retsch ball mill, 1.5 h, 30 Hz
# Protocol: (§1) XRPD measurements were performed with the X-ray powder diffractometer Bruker D8 Advance at room temperature using copper filled X-ray tube (40 kV×40 mA) as the X-ray source, CuKα (λ=1.5418 Å), a fixed 0.6 mm divergence slit, 0.0125 mm Ni filter and a 2.5° primary Soller slit, and a LynxEye 1-dimensional detector with a 2.5° secondary Soller slit. Data collection was done in 0.02° steps at a scan speed of 0.3°/s, in the range of 3-33° 2θ.
# 25-30 mg of crystalline form 3 of compound (I) was ground with 80 μl of water using a Retsch ball mill. Water addition was done in two steps, with total grinding time of 1.5 h and v=30 Hz.
# [2] = Storage at room temperature in a closed container, re-analysis by XRPD; settings: two weeks
# Protocol: as §1
# Crystalline form 4 of compound (I) was stored at room temperature in a closed container.
# [3] = Slurry experiment (ageing in solvents, XRPD analysis)
# Protocol: as §1
# Samples of 20 mg of crystalline form 5 (water content 0.3-0.6) of compound (I) were dispensed in 300 μl of various solvents defined in Table 13 at room temperature (RT) or at 40° C. under magnetic stirring (600-1000 rpm). The resulting suspensions were aged for 1 week at the respective temperatures. After the ageing period the samples were recovered, air-dried at RT and analyzed by XRPD.
smiles,measurement,setting,value
"CS(=O)(=O)N1CCC(COc2coc(CN3Cc4ccccc4C3)cc2=O)CC1 [crystalline form 3, 2-(isoindolin-2-ylmethyl)-5-((1-(methylsulfonyl)piperidin-4-yl)methoxy)-4H-pyran-4-one]",solid form after grinding with water (XRPD),[1],crystalline form 2
"CS(=O)(=O)N1CCC(COc2coc(CN3Cc4ccccc4C3)cc2=O)CC1 [Crystalline form 4, 2-(isoindolin-2-ylmethyl)-5-((1-(methylsulfonyl)piperidin-4-yl)methoxy)-4H-pyran-4-one]",solid form after storage (XRPD),[2],mixture of crystalline form 4 and crystalline form 3
"CS(=O)(=O)N1CCC(COc2coc(CN3Cc4ccccc4C3)cc2=O)CC1 [form 5, 2-(isoindolin-2-ylmethyl)-5-((1-(methylsulfonyl)piperidin-4-yl)methoxy)-4H-pyran-4-one]",solid form stability in slurry,"[3]; suspensions in the solvents of Table 13, 1 week, RT or 40° C.",stable in conditions with lower water activity
CS(=O)(=O)N1CCC(COc2coc(CN3Cc4ccccc4C3)cc2=O)CC1 [2-(isoindolin-2-ylmethyl)-5-((1-(methylsulfonyl)piperidin-4-yl)methoxy)-4H-pyran-4-one],solid form after ageing of the suspension (XRPD),"[3]; 20 mg in 300 μl of the solvents of Table 13, RT or 40° C., magnetic stirring, aged for 1 week",crystalline form 5 (water content 0.3)
